# pIC50: −log10 of the molar value. “Also recorded” adds a separate entry of the source.
# Columns and labels:
# FGFR2 = FGFR2 (Homo sapiens, UniProt P21802); test: In-cell proteome-wide competitive ABPP, HEK293: FGFR2; conditions: HEK293, compound 60 min, then 2 (20 nM) 10 min
# UCHL1 [1] = target: T1, UCHL1 (Homo sapiens, UniProt P09936); test: Reversible inhibition (jump dilution) assay with Ub-AMC; type: biochemical; parameters: rapidly targets endogenous UCHL1 in cells; endogenous in cells; host or cells: HEK293; conditions: UCHL1 300 nM, compound 400 nM, 30 min, 100x dilution
# T1 sequence (P09936 1-223): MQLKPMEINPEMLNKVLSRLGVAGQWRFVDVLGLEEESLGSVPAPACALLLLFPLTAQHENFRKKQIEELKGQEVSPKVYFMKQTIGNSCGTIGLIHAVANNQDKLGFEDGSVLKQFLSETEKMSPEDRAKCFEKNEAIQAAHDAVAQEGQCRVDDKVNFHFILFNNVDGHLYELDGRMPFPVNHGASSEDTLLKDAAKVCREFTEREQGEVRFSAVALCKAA
# Protocol: Figure S2. UCHL1 kinetics
# (a) Kinetic analysis of UCHL1 (3 nM)-catalyzed cleavage of varied concentrations of Ub-AMC.
# (b) Non-linear fit of Michaelis –Menten equation to initial reaction velocities versus Ub-AMC […]
# (c) Apparent rate of inhibition (ka) of compound 1 and 2 at varying concentrations. Ub-AMC (130 nM) fluorescence intensity was measured in the presence of UCHL1 (3 nM). The apparent rate constant for inhibition, ka/I was determined by linear regression, giving the absolute value of the rate constant kobs/I values for […]
# 13000) M-1s-1, respectively. […]
# intensity read immediately for 1 h. […]
# The excess ligand was removed by washing with buffer D in an Amicon® Ultra MWCO 10 kDa centrifugation spin filter three times. The protein-adducts were desalted using 3× SDB-XC polystyrene-divinylbenzene copolymer extraction disks, following published methods.5 Samples were eluted with 50% (v/v) MeCN 0.5% (v/v) formic acid in LC-MS grade water and analyzed by LC-ESI (ACQUITY UPLC H-Class PLUS instrument (Waters)) using an ACQUITY UPLC BEH C4 column (Waters) coupled with Waters LCT Premier MS detector. […]
# (§1) The MS data was analyzed by PEAKS Studio 8.5 (Bioinformatics Solutions Inc.). […]
# (§2) Homogeneous time resolved fluorescence (HTRF) assay […]
# (§3) BME) and incubated for 30 min at room temperature. […] The plates were sealed and incubated overnight at 4 °C then read using a PHERAstar (BMG), and the Delta F calculated: […]
# UCHL1 [2] = target: T1, UCHL1; test: UCHL1 covalent adduct site identification (tryptic digest, nanoLC-MS/MS, PEAKS); type: binding; parameters: (residues 1-223, Uniprot P09936); GST (N, cleaved yes); made in house; host or cells: E. coli Rosetta 2(DE3), pGEX-6P-1; conditions: for site of UCHL1 modification: UCHL1 5 μM, compound 13 μM, 1 h, tryptic digest
# Protocol: b) 2 modification: 96% peptide sequence coverage
# Figure S9. Identification of modification sites by nanoLC-MS/MS.
# Recombinant UCHL1 (5 µM) was incubated with compound 1 or 2 (13 µM) for 1 h at room temperature. The labeled protein was digested with trypsin and analyzed by nanoLC-MS/MS.
# The data was processed in PEAKS 8.0. 82% and 96% of UCHL1 peptide sequence coverage for (a) 1, or (b) 2 modification, respectively. The high confidence modification of compound 1 […]
# Statistical data and peptide lists from PEAKS are detailed in Supplementary Data S1. […]
# values were plotted against compound concentration to afford the apparent second order rate constant for inhibition, ka/I. The absolute value of the second order rate constant kobs/I was […]
# Reversible inhibition assay: Jump dilution assays were performed by incubating UCHL1 […]
# negative controls (iodoacetamide (IAA) 10 mM) for 30 min at room temperature. The reaction […]
# intensity read immediately for 1 h.
# UCHL1 covalent adduct determination […]
# pH 7.5) was incubated with compound 1, 2 (2.5 equiv.) or DMSO for 1 h at room temperature.
# The excess ligand was removed by washing with buffer D in an Amicon® Ultra MWCO 10 kDa centrifugation spin filter three times. The protein-adducts were desalted using 3× SDB-XC polystyrene-divinylbenzene copolymer extraction disks, following published methods.5 Samples were eluted with 50% (v/v) MeCN 0.5% (v/v) formic acid in LC-MS grade water and analyzed by LC-ESI (ACQUITY UPLC H-Class PLUS instrument (Waters)) using an ACQUITY UPLC BEH C4 column (Waters) coupled with Waters LCT Premier MS detector.
# UCHL1 covalent adduct site identification
# Compound-protein adduct samples were prepared as described above and digested with trypsin (Promega, 1:50 trypsin:UCHL1 ratio) at 37 °C, overnight. […]
# as §1, §2, §3
# USP16 = USP16 (Homo sapiens, UniProt Q9Y5T5); test: biochemical
# [3] = target: fibroblast growth factor receptor 2 (FGFR2) (Homo sapiens, UniProt P21802); test: Quantitative chemical proteomic profiling of ABP 2 in HEK293 cells: FGFR2; conditions: HEK293, 20 nM
# Sequence of fibroblast growth factor receptor 2 (FGFR2) (P21802 22-821): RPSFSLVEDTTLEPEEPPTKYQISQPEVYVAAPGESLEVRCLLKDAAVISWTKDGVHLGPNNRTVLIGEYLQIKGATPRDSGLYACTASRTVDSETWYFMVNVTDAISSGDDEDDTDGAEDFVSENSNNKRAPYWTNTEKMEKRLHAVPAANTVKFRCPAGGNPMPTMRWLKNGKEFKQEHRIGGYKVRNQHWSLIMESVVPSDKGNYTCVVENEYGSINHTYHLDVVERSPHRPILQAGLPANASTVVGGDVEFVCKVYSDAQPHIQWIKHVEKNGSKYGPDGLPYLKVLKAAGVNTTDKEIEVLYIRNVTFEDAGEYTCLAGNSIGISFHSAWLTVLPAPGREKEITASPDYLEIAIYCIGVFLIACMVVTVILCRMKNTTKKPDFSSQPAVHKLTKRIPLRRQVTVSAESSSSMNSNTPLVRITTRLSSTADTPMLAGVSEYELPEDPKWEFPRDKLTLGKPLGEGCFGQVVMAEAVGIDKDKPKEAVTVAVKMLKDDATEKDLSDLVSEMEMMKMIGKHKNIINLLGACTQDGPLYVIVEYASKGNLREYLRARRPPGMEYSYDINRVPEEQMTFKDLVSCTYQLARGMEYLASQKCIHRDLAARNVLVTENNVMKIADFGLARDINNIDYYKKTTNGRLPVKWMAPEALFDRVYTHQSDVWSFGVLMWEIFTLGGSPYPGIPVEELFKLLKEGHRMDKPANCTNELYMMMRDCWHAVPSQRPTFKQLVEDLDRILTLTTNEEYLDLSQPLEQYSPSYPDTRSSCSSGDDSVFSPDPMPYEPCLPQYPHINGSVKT
# Sequence of USP16 (Q9Y5T5 whole entry, species assumed): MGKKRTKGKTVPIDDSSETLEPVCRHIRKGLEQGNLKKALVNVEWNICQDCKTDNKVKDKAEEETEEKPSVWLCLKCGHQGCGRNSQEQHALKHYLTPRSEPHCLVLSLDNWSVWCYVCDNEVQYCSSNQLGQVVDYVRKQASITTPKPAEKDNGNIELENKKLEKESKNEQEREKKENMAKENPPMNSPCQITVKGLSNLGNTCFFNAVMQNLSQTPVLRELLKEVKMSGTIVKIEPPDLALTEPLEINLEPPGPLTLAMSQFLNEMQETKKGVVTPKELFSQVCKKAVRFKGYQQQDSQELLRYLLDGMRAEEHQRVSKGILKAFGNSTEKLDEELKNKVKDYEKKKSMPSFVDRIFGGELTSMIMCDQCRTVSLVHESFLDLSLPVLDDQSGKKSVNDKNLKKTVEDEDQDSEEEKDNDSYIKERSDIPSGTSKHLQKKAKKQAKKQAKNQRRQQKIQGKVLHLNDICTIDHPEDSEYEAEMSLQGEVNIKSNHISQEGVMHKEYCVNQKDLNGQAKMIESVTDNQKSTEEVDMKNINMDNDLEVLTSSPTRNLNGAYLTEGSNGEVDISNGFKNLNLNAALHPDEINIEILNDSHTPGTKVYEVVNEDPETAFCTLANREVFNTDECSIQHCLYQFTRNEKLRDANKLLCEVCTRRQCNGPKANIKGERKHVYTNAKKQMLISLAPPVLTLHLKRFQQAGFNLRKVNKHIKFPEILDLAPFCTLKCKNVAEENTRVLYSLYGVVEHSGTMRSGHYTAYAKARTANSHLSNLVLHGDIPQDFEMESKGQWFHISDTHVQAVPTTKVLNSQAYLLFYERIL
# Sequence of FGFR2 (P21802 22-821): as the sequence (P21802 22-821) above
FGFR2 response in proteome-wide competitive ABPP (FGFR2),reversibility of inhibition after dilution (UCHL1 [1]),FGFR2 enrichment (chemical proteomics) [3],Structure (SMILES),site of UCHL1 modification (UCHL1 [2]),pIC50 (USP16),"Peptide carrying the compound 2 modification (C, +381.16) (UCHL1 [2]; recombinant UCHL1 (P09936) treated with compound 2, tryptic digest, PEAKS, PTM code n = Compound 2 modification (C))"
responds,slowly reversible,,N#CN1CCC[C@H]1C(=O)N1CCc2c(-c3c[nH]c4ncccc34)cccc21 [Compound 1],catalytic cysteine 90; also recorded: catalytic cysteine (Cys90),< 5.00,
,slowly reversible,significantly enriched,C#Cc1cnc2[nH]cc(-c3cccc4c3CCN4C(=O)[C@@H]3CCCN3C#N)c2c1 [Compound 2],catalytic cysteine 90; also recorded: catalytic cysteine (Cys90),,QTIGNSC(+381.16)GTIGLIHAVANNQDKLGFEDGSVLK; also recorded: QTIGNSC(+381.16)GTIGLIHAVANNQDK; also recorded: QTIGNSC(+381.16)GTIGLIHAVANNQDKLGFEDGSVLKQFLSETEK
,,,"CC(=O)O/N=C1\C(=O)N(Cc2cc(Cl)ccc2Cl)c2ccc(Cl)cc21 [LDN-57444, reference compound]",,< 5.00,

# From PMC7366380, “Discovery of a Potent and Selective Covalent Inhibitor and Activity-Based Probe for the Deubiquitylating Enzyme UCHL1, with Antifibrotic Activity” (Journal of the American Chemical Society, 2020)
